Tests used:
[1] = test system: Gardner lymphosarcoma (GLS); assay: Percent inhibition of transplanted Gardner lymphosarcoma (GLS) in mice; assay type: in vivo; conditions: for oral activity: 2 (VLB) and 2-4.5 (vincristine) mg./kg.; for oral activity / inhibitory activity orally: oral; for inhibitory activity orally: 6-7 mg./kg. (3"-methyl) and 3-6 mg./kg. (3"-(β-chloroethyl))
Protocol: (§1) The following table--Table 1--gives the results of several experiments in which mice bearing transplanted tumors were treated successfully with a compound of this invention. In the table, column 1 gives the name of the compound; column 2, the transplanted tumor; column 3, the dose level or dose level range and the number of days the dosage was administered; column 4, the route of administration, and column 5, the percent inhibition of tumor growth or percent prolongation of survival time, e.g., B16 and P388. (ROS is an abbreviation for Ridgeway osteogenic sarcoma; GLS for Gardner lymphosarcoma; P1534(J) and P388 are leukemias; CA755 is an adenocarcinoma; and B16 is a melamoma).

leukemias = conditions: humans; cited from earlier work
CA755 = assay: Percent inhibition of transplanted CA755 adenocarcinoma in mice; assay type: in vivo; conditions: for oral activity: 2 (VLB) and 2-4.5 (vincristine) mg./kg.; for oral activity / inhibitory activity orally: oral; for inhibitory activity orally: 6-7 mg./kg. (3"-methyl) and 3-6 mg./kg. (3"-(β-chloroethyl))
Protocol: as §1

transplanted tumors [2] = assay: Activity against transplanted tumors in mice (general statements); assay type: in vivo; conditions: for activity by the oral route: same tumors in experimental animals; for dose level showing comparable tumor inhibition or prolongation of life: parenteral, intraperitoneal route
Protocol: as §1

[3] = test system: Ridgeway osteogenic sarcoma (ROS); assay: Percent inhibition of transplanted Ridgeway osteogenic sarcoma (ROS) in mice; assay type: in vivo; conditions: for oral activity: 2 (VLB) and 2-4.5 (vincristine) mg./kg.; for oral activity / inhibitory activity orally: oral; for inhibitory activity orally: 6-7 mg./kg. (3"-methyl) and 3-6 mg./kg. (3"-(β-chloroethyl))
Protocol: as §1

[4] = Toxicity on oral administration in tumor-bearing animals; assay type: in vivo, experimental animals; conditions: above 2 (VLB) and 2-4.5 (vincristine) mg./kg.
P1534(J) = assay: Percent inhibition, mice bearing transplanted P1534(J) leukemia; assay type: in vivo
Protocol: as §1

B16 = assay: Percent prolongation of survival time, mice bearing transplanted B16 melanoma; assay type: in vivo
Protocol: as §1

transplanted tumors [5] = conditions: C-3 amides; cited from earlier work
[6] = humans; compared with vincristine; cited from earlier work

For `CC[C@]1(O)C[C@@H]2CN(CCc3c([nH]c4ccccc34)[C@@](C(=O)OC)(c3cc4c(cc3OC)N(C)[C@H]3[C@]5(OC(=O)N(C)C5=O)[C@H](O)[C@]5(CC)C=CCN6CC[C@]43[C@@H]65)C2)C1` [4-desacetyl VLB 3"-methyl-3-spiro-5"-oxazolidone-2",4"-dione], the “Percent Inhibition” value ([1]; 2.5 mg./kg. × 7 days, IP) was 27%.
In the case of `CC[C@]1(O)C[C@H]2CN(CCc3c([nH]c4ccccc34)[C@@](C(=O)OC)(c3cc4c(cc3OC)N(C=O)[C@H]3[C@@](O)(C(=O)OC)[C@H](OC(C)=O)[C@]5(CC)C=CCN6CC[C@]43[C@@H]65)C2)C1` [vincristine, leurocristine], the “activity in the treatment of leukemias” value (leukemias) is listed as “most active and useful agent in the treatment of leukemias”, the oral activity (CA755) is listed as “only marginally active, if at all” and the “activity by the oral route” value (transplanted tumors [2]) is listed as “do not show this degree of oral activity”. For the same molecule, the “dose level showing comparable tumor inhibition or prolongation of life” value (transplanted tumors [2]) was 0.2 to 0.25 mg/kg, the oral activity [3] was “only marginally active, if at all” and the “toxicity at higher levels” value [4] was “usually are toxic at higher levels”. For the same molecule, the oral activity [1] was “only marginally active, if at all”.
For `CC[C@]1(O)C[C@@H]2CN(CCc3c([nH]c4ccccc34)[C@@](C(=O)OC)(c3cc4c(cc3OC)N(C)[C@H]3[C@@](O)(C(=O)OC)[C@H](OC(C)=O)[C@]5(CC)C=CCN6CC[C@]43[C@@H]65)C2)C1` [VLB, vincaleukoblastine, reference compound], the oral activity (CA755) was “only marginally active, if at all”, the “activity by the oral route” value (transplanted tumors [2]) was “do not show this degree of oral activity” and the “dose level showing comparable tumor inhibition or prolongation of life” value (transplanted tumors [2]) was 0.4 to 0.45 mg/kg. The oral activity [3] was “only marginally active, if at all”, the “toxicity at higher levels” value [4] was “usually are toxic at higher levels” and the oral activity [1] was “only marginally active, if at all”.
For `C=CCN1C(=O)O[C@]2(C1=O)[C@H](OC(C)=O)[C@]1(CC)C=CCN3CC[C@@]4(c5cc([C@@]6(C(=O)OC)C[C@H]7CN(CCc8c6[nH]c6ccccc86)C[C@](O)(CC)C7)c(OC)cc5N(C)[C@@H]24)[C@@H]31` [VLB 3"-allyl-3-spiro-5"-oxazolidine-2",4"-dione], the “Percent Inhibition” value ([1]; 2.5 mg./kg. × 7 days, IP) was 35%.
For `CC[C@]1(O)C[C@@H]2CN(CCc3c([nH]c4ccccc34)[C@@](C(=O)OC)(c3cc4c(cc3OC)N(C)[C@H]3[C@]5(OC(=O)N(C)C5=O)[C@H](OC(C)=O)[C@]5(CC)C=CCN6CC[C@]43[C@@H]65)C2)C1` [VLB 3"-methyl-3-spiro-5"-oxazolidine-2",4"-dione], the “Percent Inhibition” value (CA755; 0.5-1.0 mg./kg. × 10 days, IP) was 45-100%, the inhibitory activity orally (CA755) was 100% and the “Percent Inhibition or Prolongation of Survival Time” value (shortened to “Percent Inhibition or Prolongation”) (P1534(J); 3-4 mg./kg. × 8 days, PO) was 100%. For the same molecule, the “Percent Inhibition or Prolongation” value (P1534(J); .5-.6 mg./kg. × 10 days, IP) was 100%, the “Percent Inhibition” value ([3]; 5-7 mg./kg. × 10 days, PO) was 38-59% and the inhibitory activity orally [3] was 100%. The “Percent Inhibition” value ([1]; 0.6 mg./kg. × 7 days, IP) was 100%, the “Percent Inhibition” value ([1]; 1.25 mg./kg. × 9 days, IP) was 100% and the “Percent Inhibition” value ([1]; 3-4 mg./kg. × 10 days, PO) was 100%. For the same molecule, the “Percent Inhibition” value ([1]; 3-5 mg./kg. × 10 days, PO) was 37-56%, the inhibitory activity orally [1] was 100% and the “Percent Prolongation of Survival Time” value (B16; 4.5 mg./kg. × 10 days, IP (so in the source)) was 49-91%. The “indefinite survivors (survived for 60 days till end of trial)” value (B16; 0.5-0.6 mg./kg. × 10 days, IP) was 3.
For `CC[C@]1(O)C[C@@H]2CN(CCc3c([nH]c4ccccc34)[C@@](C(=O)OC)(c3cc4c(cc3OC)N(C)[C@H]3[C@@](O)(C(=O)NCCS)[C@H](O)[C@]5(CC)C=CCN6CC[C@]43[C@@H]65)C2)C1` [C-3 N-(β-mercaptoethyl)carboxamide of 4-desacetyl VLB], the “anti-tumor activity in mice” value (transplanted tumors [5]) is listed as “highly effective anti-tumor agent in mice”.
For `CC[C@]1(O)C[C@@H]2CN(CCc3c([nH]c4ccccc34)[C@@](C(=O)OC)(c3cc4c(cc3OC)N(C)[C@H]3[C@@](O)(C(N)=O)[C@H](O)[C@]5(CC)C=CCN6CC[C@]43[C@@H]65)C2)C1` [vindesine, 4-desacetyl VLB C-3 carboxamide], the neurotoxicity [6] is given as “less neurotoxicity than does vincristine” and the “activity in the treatment of leukemias” value (leukemias) is given as “active in certain leukemias”.
With `CC[C@]1(O)C[C@@H]2CN(CCc3c([nH]c4ccccc34)[C@@](C(=O)OC)(c3cc4c(cc3OC)N(C)[C@H]3[C@]5(OC(=O)N(C)C5=O)[C@H](OC(=O)NC)[C@]5(CC)C=CCN6CC[C@]43[C@@H]65)C2)C1` [4-desacetyl VLB 3"-methyl-3-spiro-5"-oxazolidine-2",4"-dione-4-(N-methyl)carbamate] the “Percent Inhibition” value ([1]; 0.1-2.5 mg./kg. × 7-9 days, IP) was 40-100%.
For `CC[C@]1(O)C[C@@H]2CN(CCc3c([nH]c4ccccc34)[C@@](C(=O)OC)(c3cc4c(cc3OC)N(C=O)[C@H]3[C@]5(OC(=O)N(C)C5=O)[C@H](OC(C)=O)[C@]5(CC)C=CCN6CC[C@]43[C@@H]65)C2)C1` [Vincristine 3"-methyl-3-spiro-5"-oxazolidine-2",4"-dione], the “Percent Inhibition” value ([1]; 1.0 mg./kg. × 7 days, IP) was 61%.
For `CC[C@]1(O)C[C@@H]2CN(CCc3c([nH]c4ccccc34)[C@@](C(=O)OC)(c3cc4c(cc3OC)N(C)[C@H]3[C@]5(OC(=O)N(CCCl)C5=O)[C@H](OC(C)=O)[C@]5(CC)C=CCN6CC[C@]43[C@@H]65)C2)C1` [VLB 3"-(β-chloroethyl)-3-spiro-5"-oxazolidine-2",4"-dione], the “Percent Inhibition” value (CA755; 0.75-1.0 mg./kg. × 10 days, IP) was 53%, the “Percent Inhibition” value (CA755; 3-5 mg./kg. × 9-10 days, PO) was 59-92% and the inhibitory activity orally (CA755) was 100%. For the same molecule, the “Percent Inhibition or Prolongation” value (P1534(J); 3.5 mg./kg. × 8 days, PO) was 100%, the “Percent Inhibition or Prolongation” value (P1534(J); 0.4-0.6 mg./kg. × 10 days, IP) was 61-86% and the inhibitory activity orally [3] was 100%. The “Percent Inhibition” value ([1]; 0.65 mg./kg. × 10 days, IP) was 47%, the “Percent Inhibition” value ([1]; 0.5-0.6 mg./kg. × 9-10 days, IP) was 50-74% and the “Percent Inhibition” value ([1]; 3-4 mg./kg. × 9 days, PO) was 92-100%. The inhibitory activity orally [1] was 100%, the “Percent Prolongation of Survival Time” value (B16; 0.4-0.6 mg./kg. × 10 days, IP) was 25-178% and the “indefinite survivors (survived for 60 days till end of trial)” value (B16; 0.4-0.6 mg./kg. × 10 days, IP) was 5.

Source: patent USRE30560E, “Oxazolidinedione derivatives of Vinca alkaloids” (Eli Lilly and Company, priority 1979, dated 1981)
